Laboratory results reported in publication PMC6625456 (Molecular Medicine Reports, 2019).

Legend:
[1] = plasma pharmacokinetics after oral and intravenous administration; assay type: in vivo, Sprague-Dawley (SD) rats; details: both, Sprague-Dawley, rat
[2] = concentration in entorhinal cortex and hippocampus after oral administration; assay type: in vivo, Sprague-Dawley (SD) rats
[3] = cumulative excretion in bile, urine and feces; assay type: in vivo, Sprague-Dawley (SD) rats; details: oral 100 mg/kg
CYP2D6 = CYP2D6 (Homo sapiens, UniProt P10635); assay: metabolism in recombinant human CYP450 enzymes; assay type: in vitro ADME; details: DL0410 10 µM; recombinant CYP1A2, CYP2C9, CYP2D6, CYP3A4; 37°C, 2 h
AChE = details: read-out: IC50, inhibition of AChE; in vitro; cited from earlier work
BChE = details: read-out: IC50, inhibition of BChE; in vitro; cited from earlier work
APP/PS1 transgenic mice = details: cited from earlier work
[4] = tested on: Aβ1-42-induced amnesia in mice; details: cited from earlier work

CYP2D6, sequence (P10635 whole entry): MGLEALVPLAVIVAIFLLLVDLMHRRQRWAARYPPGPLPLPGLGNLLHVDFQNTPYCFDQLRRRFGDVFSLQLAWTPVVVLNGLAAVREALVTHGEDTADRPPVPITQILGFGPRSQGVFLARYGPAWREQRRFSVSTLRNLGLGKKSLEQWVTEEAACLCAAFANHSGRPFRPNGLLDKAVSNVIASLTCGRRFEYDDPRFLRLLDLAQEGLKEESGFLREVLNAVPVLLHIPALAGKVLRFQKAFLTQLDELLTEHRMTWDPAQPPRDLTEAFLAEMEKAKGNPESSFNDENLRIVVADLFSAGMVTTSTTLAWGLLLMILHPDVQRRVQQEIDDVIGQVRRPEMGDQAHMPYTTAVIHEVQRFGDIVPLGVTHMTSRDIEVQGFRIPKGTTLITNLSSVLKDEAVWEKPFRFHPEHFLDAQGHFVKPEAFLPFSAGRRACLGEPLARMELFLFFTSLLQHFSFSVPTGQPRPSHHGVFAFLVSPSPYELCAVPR

Cl.Cl.O=C(CCN1CCCCC1)c1ccc(-c2ccc(C(=O)CCN3CCCCC3)cc2)cc1 [DL0410, 1,1′-([1,1′-biphenyl]-4,4′-diyl)bis(3-(piperidin-1-yl)propan-1-one) dihydrochloride]
Tmax [1]: ~0.75 h
half-life [1]: 6.05 to 8.23 h
Cmax ([1]; 25 mg/kg): 0.0215 ± 0.00346 µg/mL
AUC(0-t) ([1]; 50 mg/kg): 0.239 ± 0.063 µg·h/mL
Cmax ([1]; 50 mg/kg): 0.0561 ± 0.00401 µg/mL
Cmax ([1]; 100 mg/kg): 0.196 ± 0.0468 µg/mL
Tmax ([2]; both, Sprague-Dawley, rat, entorhinal cortex and hippocampus, po, 100 mg/kg): ~6 h
Cmax ([2]; both, Sprague-Dawley, rat, entorhinal cortex, po, 100 mg/kg): 0.0462 ± 0.0132 µg/mL
Cmax ([2]; both, Sprague-Dawley, rat, hippocampus, po, 100 mg/kg): 0.0503 ± 0.00692 µg/mL
crossing of the blood-brain barrier ([2]; rats, oral 100 mg/kg, detectable level in EC and HIP): able to cross the blood-brain barrier
accumulated excretion in bile ([3]; rat bile, for 36 h): 0.010 % of the dose
cumulative fecal excretion ([3]; rat feces): 34.71%
cumulative urinary excretion ([3]; rat urine, in 72 h): 0.086 % of the dose
CYP450 isoform involved in the reduction reaction (CYP2D6): CYP2D6 was identified to be involved in the reduction of the carbonyl group
IC50 (AChE): 0.286 ± 0.004 µM
IC50 (BChE): 3.96 ± 0.099 µM
improvement of memory deficits (APP/PS1 transgenic mice): improve memory deficits in APP/PS1 transgenic mice
improvement of Aβ1-42-induced amnesia [4]: improve memory deficits
